From publication PMC10113214 (Scientific Reports, 2023)
Entries after “also recorded” stand apart in the source; their conditions may differ.

Tests used:
[1] = Circular dichroism, conformation and thermal stability of β-sheet; assay type: physicochemical
Description: The molar ellipticity of peptides were registered on a Jasco J-815 spectrometer (JASCO, Easton, MD, USA). Solutions of peptide hybrids were prepared in water solution (10 mg/ml), incubated at 37 °C for 4 h and then diluted to a final concentration of 0.20 mg/ml. CD spectra measurements were performed at 25 °C, 30 °C, 35 °C, 40 °C, 45 °C, 50 °C, 55 °C and 60 °C, at 190–260 nm wavelength and at a scan speed of […]. The background of the solvent was subtracted. The results are presented as the relationship of mean residue molar ellipticity (MRME) [deg × cm^2 × dmol^−1] to wavelength [nm]. Measurements were performed in triplicate. In order to determine the peptides’ denaturation temperatures, the molar ellipticity rotatory angle at a fixed wavelength of 196 nm, [θ]196, was measured as a function of temperature (max 100 °C). CD temperature measurements were carried out up to a temperature of 100 °C. Above this temperature, the cure was extrapolated with GraphPad Prism 8 software using the 4PL curve fit function. The denaturation temperature was determined as the temperature at which the change in ellipticity (θ) was half complete.

[2] = molecular target: T1, Human neutrophil elastase (Homo sapiens, UniProt P08246); assay: Elastase enzymatic cleavage; assay type: in vitro ADME; settings: human neutrophil elastase 150 nM, peptide 1 mM, 30 min, 37 °C
T1 construct: purchased Sigma-Aldrich
T1 sequence (P08246 30-267): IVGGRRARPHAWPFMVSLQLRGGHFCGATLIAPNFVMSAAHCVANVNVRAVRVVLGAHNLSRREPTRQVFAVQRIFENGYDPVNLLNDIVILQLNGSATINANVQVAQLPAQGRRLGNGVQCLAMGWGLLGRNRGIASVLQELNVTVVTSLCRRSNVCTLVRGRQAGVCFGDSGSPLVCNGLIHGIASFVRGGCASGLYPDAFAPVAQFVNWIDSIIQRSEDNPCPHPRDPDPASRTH
Description: Human neutrophil elastase (EC No. 3.4.21.37, Sigma-Aldrich) was used to study peptide susceptibility to that enzyme. Peptides were dissolved in 0.1 M Tris HCl, 500 mM NaCl, 0.05% Triton X-100, 20 mM CaCl2 pH 7.5 buffer mixture. Peptides (final concentration 1 mM) were mixed with the enzyme (final concentration 150 nM) and incubated for 30 min. in a thermoshaker (37 °C, 300 rpm). The reaction was stopped by a 10% aqueous solution of TFA. The results were analyzed using HPLC and MALDI or LC–MS. Details of this experiment are described in the Supplementary Data.

[3] = Transmission electron microscopy of nanofibres; assay type: physicochemical; settings: 1% gel in PBS diluted to 0.001%, uranyl acetate stain
Description: 1% gel solutions were prepared and incubated in PBS. The samples were then diluted to 0.001% concentration. A drop of solution was applied to a microcellulose membrane and stained with a 1.5% solution of uranyl acetate. The images were registered on a Tecnai Spirit BioTwin FEI Transmission Electron Microscope operating at 120 kV.

[4] = Rheology of hydrogels; assay type: physicochemical; settings: 1% hydrogel, 37 °C
Description: Rheological parameters of the hydrogels were identified using an MCR 302 rheometer (Anton Paar GmbH, Graz, Austria). The rheometer was equipped with a CP50-1 stainless steel cone-and-plate system of 50 mm diameter, 1° cone angle and 50 µm cone truncation and a Peltier controlled temperature unit. An aliquot of 900 µL of 1% hydrogel was applied to a plate cone. The linear viscoelastic (LVE) region was determined through an amplitude sweeps: shear strain (0.01–100% at 6 rad s^−1) and shear stress (0.001–10 Pa at 6.28 rad s^−1). Frequency sweep were measured from 0.01 to 100 rad s^−1 at 2.5% strain. The frequency dependence of the storage modulus (G’) and loss modulus (G”) of the hydrogels were measured at 37 °C. All experiments were carried out in triplicate and reported as the mean of three repeats.

[5] = system: full-thickness excisional dorsal skin wounds; assay: Skin wound healing model in mice; assay type: in vivo, BALB/c mice; settings: BALB/c female mice, 6.0 mm punch dorsal wounds, 10 µL 1% hydrogel topically daily for five days; n = 6, SD
Description: Eight to ten-week-old BALB/c female mice were used for these experiments. All experimental procedures were approved by the Local Ethics Committee for Animal Experimentation in Bydgoszcz, Poland (Approval No. 49/2016). The study was conducted in compliance with the ARRIVE gudidelines. All animal handling methods were carried out in accordance with European Union Commission Recommendation of 18 June 2007 on guidelines for the accommodation and care of animals used for experimental and other scientific purposes. Before experiments, mice were randomized and divided into groups comprising six individuals. The mice were anaesthetized with inhaled 2–5% isoflurane. The skin on the dorsum was shaved and disinfected. After the skin was folded and raised cranially and caudally along the spine, the mouse was placed in a lateral position, and the folded skin was pierced with a 6.0 mm biopsy punch to make two through-and-through symmetrical wounds. Next, 10 µL of peptide hybrid hydrogel was applied onto each wound. Every gel was prepared in sterile conditions in biological safety cabinet, using sterile water to final concentration of 10 mg/ml (1%). Then the gels were incubated for 24 h allowing it to assemble. Control mice were treated with RADA16-I. The wounds were covered with a transparent Tegaderm TM dressing to protect the wound from outer environment of the cage and other animals. It was fastened with an adhesive plaster wrapped around the animal’s torso. The peptide hybrids were applied daily to the wounds for five consecutive days. The dressings were replaced daily in the first five days of the experiment and every second day until the end of the second week of the experiment. To measure the wound areas the wounds were photographed with a ruler placed next to the injury site. Wound areas were calculated using the computer-assisted image analysis program ImageJ[51].

[6] = system: dorsal skin wounds; assay: Histological evaluation of skin samples; assay type: in vivo, BALB/c mice; settings: Masson’s trichrome
Excerpt: Mice were sacrificed on day 18 post-injury. In addition, for investigation of early wound healing, 1 mouse from each group was sacrificed on day 4 post-injury. The skin samples were collected and stored in formalin. Skin samples embedded in paraffin were cut into 5 µm sections following staining with Masson’s trichrome (green: collagen, dermis; grey or dark grey: cell nuclei, epidermis, sebaceous glands; dark red: keratinized epidermis, muscle, hair; light red: red blood cells). Image acquisitions were made with a Leica DM IL microscope. To evaluate the collagen density in dorsal skin wounds, we employed the method of colour deconvolution described by Ruifrok and Johnston[52]. Using the ImageJ software with a colour deconvolution plug-in[53], we analyzed between 7 and 9 images of dorsal skin samples stained with Masson’ trichrome, representing 2–3 mice per group. The results are presented as mean relative collagen density.

[7] = system: Human neutrophil elastase (EC No. 3.4.21.37, Sigma-Aldrich); assay: Human neutrophil elastase (final concentration 150 nM) in 0.1 M Tris HCl, 500 mM NaCl, 0.05% Triton X-100, 20 mM CaCl2 pH 7.5 buffer mixture; settings: 37 °C, up to 30 min.

With CC(=O)N[C@@H](CCCNC(=N)N)C(=O)N[C@@H](C)C(=O)N[C@@H](CC(=O)O)C(=O)N[C@@H](C)C(=O)N[C@@H](CCCNC(=N)N)C(=O)N[C@@H](C)C(=O)N[C@@H](CC(=O)O)C(=O)N[C@@H](C)C(=O)N[C@@H](CCCNC(=N)N)C(=O)N[C@@H](C)C(=O)N[C@@H](CC(=O)O)C(=O)N[C@@H](C)C(=O)N[C@@H](CCCNC(=N)N)C(=O)N[C@@H](C)C(=O)N[C@@H](CC(=O)O)C(=O)N[C@@H](C)C(N)=O [RADA16-I, Ac-(Arg-Ala-Asp-Ala)4-NH2] the “heat stability of β-sheet structure (rank)” value ([1]; CD scans at different temperatures) was “lowest stability of β-sheet structure”.

In the case of CC(=O)N[C@@H](CCCNC(=N)N)C(=O)N[C@@H](C)C(=O)N[C@@H](CC(=O)O)C(=O)N[C@@H](C)C(=O)N[C@@H](CCCNC(=N)N)C(=O)N[C@@H](C)C(=O)N[C@@H](CC(=O)O)C(=O)N[C@@H](C)C(=O)N[C@@H](CCCNC(=N)N)C(=O)N[C@@H](C)C(=O)N[C@@H](CC(=O)O)C(=O)N[C@@H](C)C(=O)N[C@@H](CCCNC(=N)N)C(=O)N[C@@H](C)C(=O)N[C@@H](CC(=O)O)C(=O)N[C@@H](C)C(=O)NCC(=O)NCC(=O)NCC(=O)N[C@@H](C)C(=O)N[C@@H](C)C(=O)N1CCC[C@H]1C(=O)N[C@H](C(=O)NCC(=O)NCC(=O)NCC(=O)N[C@@H](CCCNC(=N)N)C(=O)N[C@@H](CC(=O)O)C(=O)N[C@@H](CCCCN)C(=O)N[C@H](C(=O)N[C@@H](Cc1ccc(O)cc1)C(=O)N[C@@H](CCCNC(=N)N)C(N)=O)C(C)C)C(C)C [RADA-IM, Ac-(Arg-Ala-Asp-Ala)4-Gly-Gly-Gly-Ala-Ala-Pro-Val-Gly-Gly-Gly-Arg-Asp-Lys-Val-Tyr-Arg-NH2], the “identified fragments of peptides after elastase digestion (most abundant MS signals)” value ([2]; 300 rpm, 0.1 M Tris HCl, 500 mM NaCl, 0.05% Triton X-100, 20 mM CaCl2 pH 7.5, HPLC and MALDI or LC-MS, fragment Ac-(RADA)4-GGG-AAPV-COOH) is reported as “Ac-(RADA)4-GGG-AAPV-COOH”, the “main / predominant fragments of elastase digestion” value ([2]; pH 7.5 buffer, HPLC, mass spectrometry) is reported as “Gly^24Gly^25Gly^26Arg^27Asp^28Lys^29Val^30Tyr^31Arg^32” and the “temperature of first disruption of the β-sheets” value ([1]; CD, [θ]196 nm as function of temperature 4–100 °C, gel 10 mg/ml in water, 37 °C 4 h, diluted to 0.20 mg/ml, decrease of molar ellipticity) is reported as about 52 °C. For the same compound, the “transition temperature (half β-conformation, half disordered)” value ([1]; CD, [θ]196 nm vs temperature, 0.20 mg/ml in water, above 100 °C curve extrapolated, 4PL fit) was 95 °C, the “fibre thickness (TEM)” value [3] was 6–8 nm and the “magnitude of G’ compared with other gels” value ([4]; cone-plate, frequency sweep, mean of three repeats) was “around one-tenth of these values”. For the same compound, the “shear strain above which the gel behaves like a liquid (G” > G’)” value ([4]; strain sweep, ω = 6.28 rad/s) was “above 30%”, the “wound closure on day 7” value [5] was 16.2 ± 21.1% and the “collagen density on day 18 post-injury” value ([6]; colour deconvolution, 7–9 images, 2–3 mice per group) was “statistically significant lower collagen density than the RADA16-I sample”. The “hair follicles in wound area on day 18” value ([6]; day 18 post-injury) was “many hair follicles could be observed” and the “epithelium (membrane-like structure) thickness on day 4 post-injury” value ([6]; versus RADA16-I group, Mann–Whitney U test) was “significantly thicker epithelium”.

For “Ac-(Arg-Ala-Asp-Ala)4-Gly-Gly-Gly-Ala-Ala-Pro-Val-Gly-Gly-Gly-Arg-Asp-Lys-Val-Tyr-Arg-NH2”, the cleaved bond [7] was “Val23-Gly24, major; also recorded: Gly24-Gly25, major”.

For “Ac-(Arg-Ala-Asp-Ala)4-Gly-Gly-Gly-Ala-Ala-Pro-Val-Gly-Gly-Gly-His-Lys-NH2”, the cleaved bond [7] was “Val23-Gly24; also recorded: Gly25-Gly26, major”.

For “Ac-(Arg-Ala-Asp-Ala)4-Gly-Gly-Gly-Ala-Ala-Pro-Val-Gly-Gly-Gly-Lys-Gly-His-Lys-NH2”, the cleaved bond [7] was “Val23-Gly24; also recorded: Ala21-Pro22, major; also recorded: Ala20-Ala21, major”.
